Bridge positions count the residues as written; N and C are the ends. Square brackets hold non-standard residues; d marks the D form. Peptide text beside a SMILES is read from it. * marks the point of attachment. Palmitoyl = CCCCCCCCCCCCCCCC(=O)*; Lauroyl = CCCCCCCCCCCC(=O)*; Dab = NCC[C@H](N)C(=O)O
Key:
[1] = Plasma stability in human plasma; format: in vitro ADME; conditions: human plasma, 37° C.; for remaining at 24 h, 10 μM: 1440 min, read-out: human pl. cpd left at 1440 min; for human pl. T1/2: up to 1440 min
Summary of the method: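 Peptides (1 mM DMSO/H2O stock) were spiked into human or mouse plasma in triplicate and incubated at 37 °C, sampling from 0 to 1440 min. Samples were quenched in formic acid/acetonitrile and analysed by LC/MS MRM. Remaining percent of t=0 was calculated and T1/2 derived by trend fitting.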

in vivo = assay: in vivo; parameters: species or system male CD-1 mice; conditions: for AUC0-∞ dcor. / Cmax dcor.: mouse
Procedure: 2.7. Pharmacokinetic Study (PK)
Pharmacokinetic study after intravenous (i.v.) and subcutaneous (s.c.) administration was performed for the compounds of Ex. 17, Ex. 20, Ex. 25, Ex. 26, Ex. 28, and Ex. 29. […] The compounds of Ex. 17, Ex. 25, Ex. 26, Ex. 28, and Ex. 29 were administered i.v. and s.c. as a cassette whereas for the compound of Ex. 20a single i.v. and s.c. administration was accomplished.
30 grams (±20%) male CD-1 mice obtained from Janvier, France, were used in the study testing the cassette compounds. The vehicle, phosphate buffered saline containing 5% DMSO, was added to give a final concentration of 0.5 mg/mL of the compounds (i.v. route and s.c. route). The volume was 2 mL/kg i.v. and 10 mL/kg s.c. and the cassette compounds were injected to give a final intravenous dose of 1 mg/kg and an subcutaneous dose of 5 mg/kg. Approximately 500 μL of blood were removed from the opened heart at predetermined time intervals (5, 15, 30 min and 1, 2, 4, 8 and 12 hours for the i.v. study and 5, 15, 30 min and 1, 2, 4, 8, 12 and 24 hours for the s.c. study) and added to heparinized tubes. Plasma was removed from pelleted cells upon centrifugation and frozen at −80° C. prior to HPLC-MS analysis. For the compound of Ex. 20 30 grams (±20%) male CD-1 mice obtained from Charles River Laboratories Deutschland GmbH were used. The vehicle, phosphate buffered saline, was added to give a final concentration of 0.2 mg/mL of the compound (i.v. route) and 1 mg/mL (s.c. route). The volume was 5 mL/kg i.v. and s.c. and the compound was injected to give a final intravenous dose of 1 mg/kg and an subcutaneous dose of 5 mg/kg. Approximately 300-400 μL of blood was removed under light isoflurane anesthesia by cardiac puncture at predetermined time intervals (5, 15, 30 min and 1, 2, 3, 4, 6, 12 hours for the i.v. study and 15, min and 1, 2, 4, 6, 8, 12 and 24 hours for the s.c. study) and added to heparinized tubes. Plasma was removed from pelleted cells upon centrifugation and frozen at −80° C. prior to HPLC-MS analysis.
Preparation of the Plasma Calibration Samples
“Blank” mouse plasma from untreated animals was used. Aliquots of plasma of 0.2 mL each were spiked with 50 ng of propranolol (Internal Standard, IS), (sample preparation by solid phase extraction on OASIS® HLB cartridges [Waters]) and with known amounts of Ex. 20 in order to obtain 9 plasma calibration samples in the range 10-5000 nM. The OASIS® HLB cartridges were conditioned with 1 mL of methanol and then with 1 mL of 1% NH3 in water. Samples were then diluted with 700 μL of 1% NH3 in water and loaded. The plate was washed with 1 mL of methanol/1% NH3 in water 5/95 (v/v). Elution was performed using 1 mL of 0.1% TFA in methanol.
The plate containing eluates was introduced into the concentrator system and taken to dryness. The residues were dissolved in 100 μL of formic acid 0.1%/acetonitrile, 95/5 (v/v) and analysed in the HPLC/MS on a reverse phase analytical column (Jupiter C18, 50×2.0 mm, 5 μm, Phenomenex), using gradient elution (mobile phases A: 0.1% formic acid in water, B: acetonitrile; from 5% B to 100% B in 2 min.).
Preparation of Plasma Samples
Samples coming from animal treatments were pooled in order to obtain an appropriate volume for the extraction. If the total volume obtained was less than 0.2 mL the appropriate amount of “blank” mouse plasma was added in order to keep the matrix identical to the calibration curve. Samples were than spiked with IS and processed as described for the calibration curve.
Pharmacokinetic Evaluation
In order to perform PK analysis pooled plasma data (n=3 mice) was used. PK parameters were calculated by WinNonLin™ software version 5.2.1 (Pharsight—A Certara™ Company, Mountain View, Calif. 94041 USA) using non-compartmental analysis with a linear up/log down trapezoidal calculation method. For the terminal elimination phase at least 3 time points and a correlation coefficient greater than 0.85 was used. […]

SMILES	remaining at 24 h, 10 μM [1] [%]	human pl. T1/2 [1] [h]	bioavailability (in vivo; male, CD-1, mouse) [%]	AUC(0-inf) (in vivo; male, CD-1, mouse, iv, 1 mg/kg) [ng·h/mL]	Cmax (in vivo; male, CD-1, mouse, iv, 1 mg/kg) [ng/mL]	Tmax (in vivo; male, CD-1, mouse, iv, 1 mg/kg) [h]	half-life (in vivo; male, CD-1, mouse, iv, 1 mg/kg) [h]	level at 0.083 h (in vivo; male, CD-1, mouse, iv, 1 mg/kg) [ng/mL]	level at 0.25 h (in vivo; male, CD-1, mouse, iv, 1 mg/kg) [ng/mL]	level at 0.5 h (in vivo; male, CD-1, mouse, iv, 1 mg/kg) [ng/mL]	level at 1 h (in vivo; male, CD-1, mouse, iv, 1 mg/kg) [ng/mL]	level at 2 h (in vivo; male, CD-1, mouse, iv, 1 mg/kg) [ng/mL]	level at 4 h (in vivo; male, CD-1, mouse, iv, 1 mg/kg) [ng/mL]	level at 12 h (in vivo; male, CD-1, mouse, iv, 1 mg/kg) [ng/mL]	AUC(0-inf) (in vivo; male, CD-1, mouse, sc, 5 mg/kg) [ng·h/mL]	Cmax (in vivo; male, CD-1, mouse, sc, 5 mg/kg) [ng/mL]	Tmax (in vivo; male, CD-1, mouse, sc, 5 mg/kg) [h]	half-life (in vivo; male, CD-1, mouse, sc, 5 mg/kg) [h]	level at 0.5 h (in vivo; male, CD-1, mouse, sc, 5 mg/kg) [ng/mL]	level at 1 h (in vivo; male, CD-1, mouse, sc, 5 mg/kg) [ng/mL]	also measured
CCCCCCCCCCCC(=O)NCCCC[C@@H]1NC(=O)[C@H](Cc2ccc(O)cc2)NC(=O)[C@@H]2CSSC[C@H](NC(=O)[C@H](C)NC(=O)[C@H](Cc3c[nH]cn3)NC(=O)[C@H](Cc3ccc(O)cc3)NC(=O)[C@@H]3CCCN3C(=O)[C@H]3CCCN3C(=O)[C@H](CCCCN)NC1=O)C(=O)N[C@@H](CCCNC(=N)N)C(=O)N[C@@H](C)C(=O)N1CCC[C@@H]1C(=O)N[C@@H](CCN)C(=O)N[C@@H](CCCNC(=N)N)C(=O)N[C@@H](Cc1ccc(O)cc1)C(=O)N2 [Ex. 17] (cyclo(YHACRA[dP][Dab]RYCYK(Lauroyl)K[dP]P); disulfide 4-11)	65	24	114	2950	2640	0.1	2	2640	2030	1560	1290	178	141	8	16800	1750	2	4.3	450	874	level at 8 h (in vivo; male, CD-1, mouse, iv, 1 mg/kg): 15 ng/mL; level at 0.25 h (in vivo; male, CD-1, mouse, sc, 5 mg/kg): 140 ng/mL; level at 2 h (in vivo; male, CD-1, mouse, sc, 5 mg/kg): 1750 ng/mL; level at 4 h (in vivo; male, CD-1, mouse, sc, 5 mg/kg): 1410 ng/mL; level at 8 h (in vivo; male, CD-1, mouse, sc, 5 mg/kg): 1240 ng/mL; level at 12 h (in vivo; male, CD-1, mouse, sc, 5 mg/kg): 567 ng/mL; level at 24 h (in vivo; male, CD-1, mouse, sc, 5 mg/kg): 65 ng/mL; AUC0-∞ dcor. (in vivo; iv, 1 mg/kg): 2950.8 kg·ng·h/mg/mL; Cmax dcor. (in vivo; iv, 1 mg/kg): 2640.0 kg·ng/mg/mL; AUC0-∞ dcor. (in vivo; sc, 5 mg/kg): 3357.9 kg·ng·h/mg/mL; Cmax dcor. (in vivo; sc, 5 mg/kg): 350.6 kg·ng/mg/mL
CCCCCCCCCCCCCCCC(=O)NCCCC[C@@H]1NC(=O)[C@H](Cc2ccc(O)cc2)NC(=O)[C@@H]2CSSC[C@H](NC(=O)[C@H](Cc3ccc(O)cc3)NC(=O)[C@H](Cc3c[nH]cn3)NC(=O)[C@H](Cc3ccc(O)cc3)NC(=O)[C@@H]3CCCN3C(=O)[C@H]3CCCN3C(=O)[C@H](CCCCN)NC1=O)C(=O)N[C@@H](CO)C(=O)N[C@@H](C)C(=O)N1CCC[C@@H]1C(=O)N[C@@H](CCN)C(=O)N[C@@H](CCCNC(=N)N)C(=O)N[C@@H](Cc1ccc(O)cc1)C(=O)N2 [Ex. 20] (cyclo(YHYCSA[dP][Dab]RYCYK(Palmitoyl)K[dP]P); disulfide 4-11)	54	24	139	5500	2210	0.5	2	777	1520	2210	1380	992	486	13	38200	3040	12	2.9	70	342	level at 3 h (in vivo; male, CD-1, mouse, iv, 1 mg/kg): 638 ng/mL; level at 6 h (in vivo; male, CD-1, mouse, iv, 1 mg/kg): 234 ng/mL; level at 2 h (in vivo; male, CD-1, mouse, sc, 5 mg/kg): 868 ng/mL; level at 4 h (in vivo; male, CD-1, mouse, sc, 5 mg/kg): 1700 ng/mL; level at 6 h (in vivo; male, CD-1, mouse, sc, 5 mg/kg): 2800 ng/mL; level at 8 h (in vivo; male, CD-1, mouse, sc, 5 mg/kg): 2860 ng/mL; level at 12 h (in vivo; male, CD-1, mouse, sc, 5 mg/kg): 3040 ng/mL; level at 24 h (in vivo; male, CD-1, mouse, sc, 5 mg/kg): 179 ng/mL; AUC0-∞ dcor. (in vivo; iv, 1 mg/kg): 5504.8 kg·ng·h/mg/mL; Cmax dcor. (in vivo; iv, 1 mg/kg): 2210.0 kg·ng/mg/mL; AUC0-∞ dcor. (in vivo; sc, 5 mg/kg): 7630.8 kg·ng·h/mg/mL; Cmax dcor. (in vivo; sc, 5 mg/kg): 608.7 kg·ng/mg/mL

From patent US8716242B2, “β-hairpin peptidomimetics” (priority 2009, dated 2014)
